The structures appear in SMILES notation.

Sequence of human GPR40 receptor (O14842 whole entry): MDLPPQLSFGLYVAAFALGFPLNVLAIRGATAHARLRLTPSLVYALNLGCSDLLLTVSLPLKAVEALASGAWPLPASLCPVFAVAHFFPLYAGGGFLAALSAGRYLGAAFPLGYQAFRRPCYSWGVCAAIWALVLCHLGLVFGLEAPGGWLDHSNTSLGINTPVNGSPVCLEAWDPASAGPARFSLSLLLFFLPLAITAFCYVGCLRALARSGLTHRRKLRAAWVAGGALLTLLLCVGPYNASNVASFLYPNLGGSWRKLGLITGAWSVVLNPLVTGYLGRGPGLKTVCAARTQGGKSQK

In the test the target is human GPR40 receptor (Homo sapiens, UniProt O14842). Description: IP1 accumulation measurements using the IPOne assay system. Format: cell-based. The note with it: IP1 accumulation (IPOne HTRF), 1 hour stimulation; 1321N1 cells stably expressing human GPR40; read-out: EC50 values on GPR40 determined as described in (B). The protocol:
(B) IP1 accumulation measurements using the IPOne assay system—1321N1 cells stably expressing human GPR40 receptor (Euroscreen, Belgium) were seeded 24 h before the assay in black clear-bottom collagen-coated 384-well plates in culture medium containing 10% FCS, 1% Na-Pyruvate and 400 μg/mL G418. IP1 is assayed according to the Manufacturer's description (Cisbio Bioassays, France). In brief, the assay is started by substitution of the culture medium by stimulation buffer (Hepes 10 mM, CaCl2 1 mM, MgCl2 0.5 mM, KCl 4.2 mM, NaCl 146 mM and glucose 5.5 mM, pH 7.4) without LiCl. Cells are stimulated for 1 hour at 37°, 10% CO2 by addition of the compounds that were diluted in stimulation buffer containing LiCl yielding a final LiCl concentration of 50 mM. Assays are stopped by adding HTRF-conjugates (IP1-d2 and Anti-IP1 cryptate Tb) and lysis buffer, provided by the manufacturer. After an incubation time of 1 hour at room temperature plates are measured using an EnVision™, Perkin Elmer.
A word on the EC50: it is the concentration that produces a half-maximal response. In the case of `COC(c1cccc2c1CC[C@H]2Oc1ccc2c(c1)OC[C@H]2CC(=O)O)C(C)(C)C` (mixture of isomers) [Example 27, {(S)-6-[(R)-4-(1-Methoxy-2,2-dimethyl-propyl)-indan-1-yloxy]-2,3-dihydro-benzofuran-3-yl}-acetic acid], the 50% effective concentration (EC50) turned out to be 23 nM.
Next, `Cc1c(O[C@@H]2CCc3c2cccc3C(F)(F)F)ccc2c1OCC2CC(=O)O` (mixture of isomers) [Example 105, {7-Methyl-6-[(R)-4-trifluoromethyl-indan-1-yloxy]-2,3-dihydro-benzofuran-3-yl}-acetic acid]: 4250 nM; `Cc1cc2c(cc1O[C@@H]1CCc3c1cccc3C(F)(F)F)OCC2CC(=O)O` (mixture of isomers) [Example 107, {5-Methyl-6-[(R)-4-trifluoromethyl-indan-1-yloxy]-2,3-dihydro-benzofuran-3-yl}-acetic acid]: 6050 nM.
Then `CO[C@@H](c1cccc2c1CC[C@H]2Oc1ccc2c(c1)OC[C@H]2CC(=O)O)C(C)(C)C` (single isomer, unassigned) [Example 28, {(S)-6-[(R)-4-((R)*-1-Methoxy-2,2-dimethyl-propyl)-indan-1-yloxy]-2,3-dihydro-benzofuran-3-yl}-acetic acid], with 25 nM; and `CO[C@H](c1cccc2c1CC[C@H]2Oc1ccc2c(c1)OC[C@H]2CC(=O)O)C(C)(C)C` (single isomer, unassigned) [Example 29, {(S)-6-[(R)-4-((S)*-1-Methoxy-2,2-dimethyl-propyl)-indan-1-yloxy]-2,3-dihydro-benzofuran-3-yl}-acetic acid], with 14 nM; and `CO[C@H](c1cccc2c1CC[C@H]2Oc1ccc2c(c1)OC[C@H]2CC(=O)O)C(F)(F)F` (single isomer, unassigned) [Example 38, {(S)-6-[(R)-4-((R)*-2,2,2-Trifluoro-1-methoxy-ethyl)-indan-1-yloxy]-2,3-dihydro-benzofuran-3-yl}-acetic acid], with 131 nM.
Then `CO[C@@H](c1cccc2c1CC[C@H]2Oc1ccc2c(c1)OC[C@H]2CC(=O)O)C(F)(F)F` (single isomer, unassigned) [Example 39, {(S)-6-[(R)-4-((S)*-2,2,2-Trifluoro-1-methoxy-ethyl)-indan-1-yloxy]-2,3-dihydro-benzofuran-3-yl}-acetic acid], with 262 nM.
Turning to `CC1OC(c2cccc3c2CC[C@H]3Oc2ccc3c(c2)OC[C@H]3CC(=O)O)C1(C)C` (single isomer, unassigned) [Example 41], the EC50 was 323 nM.
Take `CC1OC(c2cccc3c2CC[C@H]3Oc2ccc3c(c2)OC[C@H]3CC(=O)O)C1(C)C` (single isomer, unassigned) [Example 42]: the concentration giving a half-maximal response (EC50) came to 131 nM.
Then `CC1(C)CCCO[C@@H]1c1cccc2c1CC[C@H]2Oc1ccc2c(c1)OC[C@H]2CC(=O)O` (single isomer, unassigned) [Example 66], with 80 nM; and `CC1(C)CCCO[C@H]1c1cccc2c1CC[C@H]2Oc1ccc2c(c1)OC[C@H]2CC(=O)O` (single isomer, unassigned) [Example 67], with 176 nM.
For the compound `CC1(C)CCC[C@@H]1c1cccc2c1CC[C@H]2Oc1ccc2c(c1)OC[C@H]2CC(=O)O` (single isomer, unassigned) [Example 75], the EC50 was determined as 39 nM.
Then `CC1(C)CCC[C@H]1c1cccc2c1CC[C@H]2Oc1ccc2c(c1)OC[C@H]2CC(=O)O` (single isomer, unassigned) [Example 76], with 95 nM.
Then `O=C(O)C[C@@H]1COc2cc(O[C@@H]3CCc4ccc(C(F)(F)F)cc43)ccc21` [Example 19, {(S)-6-[(R)-6-Trifluoromethyl-indan-1-yloxy]-2,3-dihydro-benzofuran-3-yl}-acetic acid], with 5190 nM; and `O=C(O)C[C@@H]1COc2cc(O[C@@H]3CCc4cc(Cl)ccc43)ccc21` [Example 21, {(S)-6-[(R)-5-Chloro-indan-1-yloxy]-2,3-dihydro-benzofuran-3-yl}-acetic acid], with 54 nM; and `O=C(O)C[C@@H]1COc2cc(O[C@@H]3CCc4cccc(C(F)(F)F)c43)ccc21` [Example 23, {(S)-6-[(R)-7-Trifluoromethyl-indan-1-yloxy]-2,3-dihydro-benzofuran-3-yl}-acetic acid], with 9120 nM.
On to `O=C(O)C[C@@H]1COc2cc(O[C@@H]3CCc4c(C(F)(F)F)ccc(F)c43)ccc21` [Example 24, {(S)-6-[(R)-7-Fluoro-4-trifluoromethyl-indan-1-yloxy]-2,3-dihydro-benzofuran-3-yl}-acetic acid], for which the concentration for a half-maximal effect (EC50) turned out to be 35 nM.
Then `O=C(O)C[C@@H]1COc2cc(O[C@@H]3CCc4c(OC(F)(F)F)cccc43)ccc21` [Example 25, {(S)-6-[(R)-4-Trifluoromethoxy-indan-1-yloxy]-2,3-dihydro-benzofuran-3-yl}-acetic acid], with 18 nM.
Next, `Cc1cc2c(c(C(F)(F)F)c1)CC[C@H]2Oc1ccc2c(c1)OC[C@H]2CC(=O)O` [Example 26, {(S)-6-[(R)-6-Methyl-4-trifluoromethyl-indan-1-yloxy]-2,3-dihydro-benzofuran-3-yl}-acetic acid]: 19 nM; `Cc1ccc(C(F)(F)F)c2c1[C@H](Oc1ccc3c(c1)OC[C@H]3CC(=O)O)CC2` [Example 30, {(S)-6-[(R)-7-Methyl-4-trifluoromethyl-indan-1-yloxy]-2,3-dihydro-benzofuran-3-yl}-acetic acid]: 302 nM.
Then `O=C(O)C[C@@H]1COc2cc(O[C@@H]3CCc4c(C5CC5)cccc43)ccc21` [Example 31, {(S)-6-[(R)-4-Cyclopropyl-indan-1-yloxy]-2,3-dihydro-benzofuran-3-yl}-acetic acid], with 168 nM; and `CC(C)c1cccc2c1CC[C@H]2Oc1ccc2c(c1)OC[C@H]2CC(=O)O` [Example 32, {(S)-6-[(R)-4-Isopropyl-indan-1-yloxy]-2,3-dihydro-benzofuran-3-yl}-acetic acid], with 98 nM; and `Cc1cccc(C)c1-c1cccc2c1CC[C@H]2Oc1ccc2c(c1)OC[C@H]2CC(=O)O` [Example 33, {(S)-6-[(R)-4-(2,6-Dimethyl-phenyl)-indan-1-yloxy]-2,3-dihydro-benzofuran-3-yl}-acetic acid], with 4 nM.
Regarding `CC(C)(C)Cc1cccc2c1CC[C@H]2Oc1ccc2c(c1)OC[C@H]2CC(=O)O` [Example 34, {(S)-6-[(R)-4-(2,2-Dimethyl-propyl)-indan-1-yloxy]-2,3-dihydro-benzofuran-3-yl}-acetic acid], the EC50 was 13 nM.
Next, `CC(C)c1ccccc1-c1cccc2c1CC[C@H]2Oc1ccc2c(c1)OC[C@H]2CC(=O)O` [Example 35, {(S)-6-[(R)-4-(2-Isopropyl-phenyl)-indan-1-yloxy]-2,3-dihydro-benzofuran-3-yl}-acetic acid]: 4 nM; `Cc1ccc2c(c1C(F)(F)F)CC[C@H]2Oc1ccc2c(c1)OC[C@H]2CC(=O)O` [Example 36, {(S)-6-[(R)-5-Methyl-4-trifluoromethyl-indan-1-yloxy]-2,3-dihydro-benzofuran-3-yl}-acetic acid]: 19 nM.
Then `O=C(O)C[C@@H]1COc2cc(O[C@@H]3CCc4c3ccc(F)c4F)ccc21` [Example 37, {(S)-6-[(R)-4,5-Difluoro-indan-1-yloxy]-2,3-dihydro-benzofuran-3-yl}-acetic acid], with 78 nM.
In the case of `CC1(C)CCC=C1c1cccc2c1CC[C@H]2Oc1ccc2c(c1)OC[C@H]2CC(=O)O` [Example 40, {(S)-6-[(R)-4-(5,5-Dimethyl-cyclopent-1-enyl)-indan-1-yloxy]-2,3-dihydro-benzofuran-3-yl}-acetic acid], the concentration for a half-maximal effect (EC50) came out at 13 nM.
Next, `O=C(O)C[C@@H]1COc2cc(OC3CCc4ccccc43)ccc21` (stereo partly shown) [Example 43]: 420 nM; `O=C(O)C[C@@H]1COc2cc(O[C@@H]3CCc4c3ccc(F)c4Cl)ccc21` [Example 44, {(S)-6-[(R)-4-Chloro-5-fluoro-indan-1-yloxy]-2,3-dihydro-benzofuran-3-yl}-acetic acid]: 25 nM; `N#Cc1cccnc1-c1cccc2c1CC[C@H]2Oc1ccc2c(c1)OC[C@H]2CC(=O)O` [Example 46, {(S)-6-[(R)-4-(3-Cyano-pyridin-2-yl)-indan-1-yloxy]-2,3-dihydro-benzofuran-3-yl}-acetic acid]: 982 nM.
Then `O=C(O)C[C@@H]1COc2cc(O[C@@H]3CCc4c(C5=CCCC56CCOCC6)cccc43)ccc21` [Example 47, {(S)-6-[(R)-4-(8-Oxa-spiro[4.5]dec-1-en-1-yl)-indan-1-yloxy]-2,3-dihydro-benzofuran-3-yl}-acetic acid], with 71 nM; and `CC1=C(c2cccc3c2CC[C@H]3Oc2ccc3c(c2)OC[C@H]3CC(=O)O)C(C)(C)CCC1` [Example 48, {(S)-6-[(R)-4-(2,6,6-Trimethyl-cyclohex-1-enyl)-indan-1-yloxy]-2,3-dihydro-benzofuran-3-yl}-acetic acid], with 16 nM; and `Cc1nn(C)c(C)c1-c1cccc2c1CC[C@H]2Oc1ccc2c(c1)OC[C@H]2CC(=O)O` [Example 49, {(S)-6-[(R)-4-(1,3,5-Trimethyl-1H-pyrazol-4-yl)-indan-1-yloxy]-2,3-dihydro-benzofuran-3-yl}-acetic acid], with 1910 nM.

The values above are taken from US20120302566A1, “INDANYLOXYDIHYDROBENZOFURANYLACETIC ACIDS” (BOEHRINGER INGELHEIM INTERNATIONAL GMBH, priority 2010, published 2012).
